Measured values as given in US20040038965A1, “Protease inhibitors” (priority 2003, published 2004).

What was measured:
bone resorption [1] = conditions: rats on calcium deficient diets, serum calcium; cited from earlier work
bone resorption [2] = conditions: mouse bone organ culture; cited from earlier work
human Cathepsin L = human Cathepsin L (Homo sapiens, UniProt P07711); test: Cathepsin L inhibition, progress curve method; type: biochemical
Protocol: (§1) Potential inhibitors were evaluated using the progress curve method. Assays were carried out in the presence of variable concentrations of test compound. Reactions were initiated by addition of enzyme to buffered solutions of inhibitor and substrate. Data analysis was conducted according to one of two procedures depending on the appearance of the progress curves in the presence of inhibitors. For those-compounds whose progress curves were linear, apparent inhibition constants (Ki,app) were calculated according to equation 1 (Brandt et al., Biochemitsry, 1989, 28, 140):
(§2) v=VmA/[Ka(1+1/Ki, app)+A] (1)
(§3) where v is the velocity of the reaction with maximal velocity Vm, A is the concentration of substrate with Michaelis constant of Ka, and I is the concentration of inhibitor.

human Cathepsin B = human Cathepsin B (Homo sapiens, UniProt P07858); test: Cathepsin B inhibition, progress curve method; type: biochemical
Protocol: as §1, §2, §3

human Cathepsin K = molecular target: T1, human Cathepsin K (Homo sapiens, UniProt P43235); test: Cathepsin K inhibition, fluorogenic peptide substrate, progress curve method; type: biochemical; conditions: human recombinant enzyme, pH 5.5
T1 sequence (P43235 115-329): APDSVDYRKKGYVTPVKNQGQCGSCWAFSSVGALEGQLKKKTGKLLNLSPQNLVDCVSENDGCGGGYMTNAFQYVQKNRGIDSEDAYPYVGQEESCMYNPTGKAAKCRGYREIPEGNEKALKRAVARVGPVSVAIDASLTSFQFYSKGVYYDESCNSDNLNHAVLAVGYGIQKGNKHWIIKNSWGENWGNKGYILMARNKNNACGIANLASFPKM
Protocol: Determination of Cathepsin K Proteolytic Catalytic Activity
All assays for cathepsin K were carried out with human recombinant enzyme. Standard assay conditions for the determination of kinetic constants used a fluorogenic peptide substrate, typically Cbz-Phe-Arg-AMC, and were determined in […] Na acetate at pH 5.5 containing 20 mM cysteine and 5 mM EDTA. Stock substrate solutions were prepared at concentrations of 10 or 20 mM in DMSO with 20 uM final substrate concentration in the assays. All assays contained 10% DMSO. […] All assays were conducted at ambient temperature. Product fluorescence (excitation at 360 nm; emission at 460 nm) was monitored with a Perceptive Biosystems Cytofluor II fluorescent plate reader. Product progress curves were generated over 20 to 30 minutes following formation of AMC product.
as §1, with “140): […]” for “140):”
v=VmA/[Ka(1+[…])+A] (1) where v is the velocity of the reaction with maximal velocity Vm, A is the concentration of substrate with Michaelis constant of Ka, and I is the concentration of inhibitor.
[AMC]=vsst+(v0−vss)[1−exp(−kobst)]]/kobs (2) where [AMC] is the concentration of product formed over time t, v0 is the initial reaction velocity and vss is the final steady state rate. Values for kobs were then analyzed as a linear function of inhibitor concentration to generate an apparent second order rate constant (kobs/inhibitor concentration or kobs/[I]) describing the time-dependent inhibition. A complete discussion of this kinetic treatment has been fully described (Morrison et al., Adv. Enzymol. Relat. Areas Mol. Biol., 1988, 61, 201).

human Cathepsin S = human Cathepsin S (Homo sapiens, UniProt P25774); test: Cathepsin S inhibition, progress curve method; type: biochemical
Sequence of human Cathepsin S (P25774 115-331): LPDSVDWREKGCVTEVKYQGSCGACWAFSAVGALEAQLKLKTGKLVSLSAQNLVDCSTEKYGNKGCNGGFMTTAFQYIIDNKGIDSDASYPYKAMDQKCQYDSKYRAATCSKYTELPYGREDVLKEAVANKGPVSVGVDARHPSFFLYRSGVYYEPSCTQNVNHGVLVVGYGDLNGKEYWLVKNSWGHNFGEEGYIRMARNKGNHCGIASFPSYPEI
Protocol: as §1, §2, §3

[3] = system: PTH stimulated bone resorption; conditions: mouse calvariae; cited from earlier work

Sequence of human Cathepsin L (P07711 114-333): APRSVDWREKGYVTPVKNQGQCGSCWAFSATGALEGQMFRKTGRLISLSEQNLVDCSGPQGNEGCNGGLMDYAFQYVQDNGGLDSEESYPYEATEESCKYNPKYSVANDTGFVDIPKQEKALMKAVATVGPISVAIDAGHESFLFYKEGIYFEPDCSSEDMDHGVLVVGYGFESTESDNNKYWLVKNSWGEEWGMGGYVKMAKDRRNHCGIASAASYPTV

CC(C)C[C@H](NC(=O)[C@H]1O[C@@H]1C(=O)O)C(=O)NCCCCN=C(N)N [Example E-64, E-64]
prevention of bone resorption in vivo (bone resorption [1]): effective at preventing bone resorption in vivo

CC(=O)N[C@@H](CC(C)C)C(=O)N[C@@H](CC(C)C)C(=O)N[C@H](C=O)CCCNC(=N)N [leupeptin]
prevention of bone resorption (bone resorption [2]): prevent bone resorption | prevention of bone resorption in vivo (bone resorption [1]): effective at preventing bone resorption in vivo

O=C(NC1(C(=O)N[C@H]2CCCN(S(=O)(=O)c3ccccn3)CC2=O)CCCCC1)c1cc2sccc2s1 (racemic) [Example 2, Thieno[3,2-b]thiophene-2-carboxylic Acid {1-[(+/−)-3-oxo-1-(pyridine-2-sulfonyl)-azepan-4-ylcarbamorl]-cyclohexyl}-amide]
Ki (human Cathepsin L): 270 nM | Ki (human Cathepsin B): 434 nM | Ki (human Cathepsin K): 0.58 nM | Ki (human Cathepsin S): 632 nM

O=C(NC1(C(=O)N[C@H]2CCCN(S(=O)(=O)c3ccccn3)CC2=O)CCCCC1)c1cc2ccccc2o1 [Example 1, Benzofaran-2-carboxylic Acid {1-[(S)-3-oxo-1-(pyridine-2-sulfonel)-azepan-4-ylcarbamoyl]-cyclohexyl}-amide]
Ki (human Cathepsin L): 239 nM | Ki (human Cathepsin B): 926 nM | Ki (human Cathepsin K): 1.4 nM | Ki (human Cathepsin S): 390 nM

cystatin
inhibition of PTH stimulated bone resorption [3]: inhibits PTH stimulated bone resorption

C[C@H](NC(=O)[C@H](Cc1ccccc1)NC(=O)OCc1ccccc1)C(=O)C=[N+]=[N-] [Z-Phe-Ala-CHN2]
prevention of bone resorption (bone resorption [2]): prevent bone resorption

C[C@@H]1CC[C@H](NC(=O)C2(NC(=O)c3cc4sccc4s3)CCCCC2)C(=O)CN1S(=O)(=O)c1ccccn1 [Example 5, Thieno[3,2-b]thiophene-2-carboxylic Acid {1-[(4S,7R)-7-methyl-3-oxo-1-(pyridine-2-sulfonyl)-azepan-4-ylcarbamoyl]-cyclohexyl}-amide]
Ki (human Cathepsin L): 69 nM | Ki (human Cathepsin B): 173 nM | Ki (human Cathepsin K): 0.3 nM | Ki (human Cathepsin S): 175 nM

O=C(NC1(C(=O)N[C@@H]2CCCN(S(=O)(=O)c3ccccn3)CC2=O)CCCCC1)c1cc2ccccc2o1 [Example 1 (R), Benzofuran-2-carboxylic acid {1-[(R)-3-oxo-1-(pyridine-2-sulfonyl)-azepan-4-ylcarbamoyl]-cyclohexyl}-amide]
Ki (human Cathepsin K): > 26 nM
